Laboratory results as given in PubChem BioAssay AID2060494 (Molecular Pharmacology Branch, DTP, NCI, 2025).

Test system: 435261-313-R-J1-PDC complex spheroid viability
Assay: Anticancer human tumor 435261-313-R-J1-PDC patient-derived colon adenocarcinoma cell line growth inhibition [GQUAD]
Conditions: for IC50: curve of first compound; for viability, T/C: stronger effect = lower value
How it was run: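 Viability of tumor cells grown as complex spheroids with endothelial and stromal cells, exposed to drug combinations. Top concentration at or near clinical Cmax (else 10 microM), diluted in half-log increments.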

[1] = second compound 0.0316 µM, first compound 0.0316 µM
[2] = second compound 0.0316 µM, first compound 0.1 µM
[3] = second compound 0.0316 µM, first compound 0.316 µM
[4] = second compound 0.0316 µM, first compound 1 µM
[5] = second compound 0.0316 µM, first compound 3.16 µM
[6] = second compound 0.0316 µM, first compound 10 µM
[7] = second compound 0.1 µM, first compound 0.0316 µM
[8] = second compound 0.1 µM, first compound 0.1 µM
[9] = second compound 0.1 µM, first compound 0.316 µM
[10] = second compound 0.1 µM, first compound 1 µM
[11] = second compound 0.1 µM, first compound 3.16 µM
[12] = second compound 0.1 µM, first compound 10 µM
[13] = second compound 0.316 µM, first compound 0.0316 µM
[14] = second compound 0.316 µM, first compound 0.1 µM
[15] = second compound 0.316 µM, first compound 0.316 µM
[16] = second compound 0.316 µM, first compound 1 µM
[17] = second compound 0.316 µM, first compound 3.16 µM
[18] = second compound 0.316 µM, first compound 10 µM
[19] = second compound 1 µM, first compound 0.0316 µM
[20] = second compound 1 µM, first compound 0.1 µM
[21] = second compound 1 µM, first compound 0.316 µM
[22] = second compound 1 µM, first compound 1 µM
[23] = second compound 1 µM, first compound 3.16 µM
[24] = second compound 1 µM, first compound 10 µM
[25] = second compound 3.16 µM, first compound 0.0316 µM
[26] = second compound 3.16 µM, first compound 0.1 µM
[27] = second compound 3.16 µM, first compound 0.316 µM
[28] = second compound 3.16 µM, first compound 1 µM
[29] = second compound 3.16 µM, first compound 3.16 µM
[30] = second compound 3.16 µM, first compound 10 µM
[31] = second compound 10 µM, first compound 0.0316 µM
[32] = second compound 10 µM, first compound 0.1 µM
[33] = second compound 10 µM, first compound 0.316 µM
[34] = second compound 10 µM, first compound 1 µM
[35] = second compound 10 µM, first compound 3.16 µM
[36] = second compound 10 µM, first compound 10 µM
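Note: spheroids exposed to the agents for seven days before readout.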
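Throughout, for viability, T/C: percent of vehicle control viability with DMSO wells as 100%.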

## C#Cc1c(F)ccc2cc(O)cc(-c3ncc4c(N5CC6CCC(C5)N6)nc(OCC56CCCN5CC(F)C6)nc4c3F)c12 (stereo unspecified) + Cc1cnc(CNC(=O)c2c(=O)c3ccc(N4CCCN(C)CC4)nc3n3c2sc2ccccc23)cn1
Second compound 0.0316 µM
  IC50: 1840 nM
Second compound 0.1 µM
  IC50: 341 nM
Second compound 0.316 µM
  IC50: 448 nM
Second compound 1 µM
  IC50: < 31.6 nM
Second compound 3.16 µM
  IC50: < 31.6 nM
Second compound 10 µM
  IC50: < 31.6 nM
[1]
  viability, T/C: 74.5%
[2]
  viability, T/C: 61%
[3]
  viability, T/C: 71.5%
[4]
  viability, T/C: 50.5%
[5]
  viability, T/C: 45.9%
[6]
  viability, T/C: 34.7%
[7]
  viability, T/C: 59.5%
[8]
  viability, T/C: 62.2%
[9]
  viability, T/C: 49.8%
[10]
  viability, T/C: 36.6%
[11]
  viability, T/C: 43.1%
[12]
  viability, T/C: 29.6%
[13]
  viability, T/C: 53%
[14]
  viability, T/C: 59.6%
[15]
  viability, T/C: 55.4%
[16]
  viability, T/C: 37.8%
[17]
  viability, T/C: 34.8%
[18]
  viability, T/C: 30.5%
[19]
  viability, T/C: 37.4%
[20]
  viability, T/C: 34.4%
[21]
  viability, T/C: 34.1%
[22]
  viability, T/C: 34.3%
[23]
  viability, T/C: 30%
[24]
  viability, T/C: 17.1%
[25]
  viability, T/C: 0.16%
[26]
  viability, T/C: 6.4%
[27]
  viability, T/C: 0.17%
[28]
  viability, T/C: 6.39%
[29]
  viability, T/C: 0.17%
[30]
  viability, T/C: 0.15%
[31]
  viability, T/C: 0.12%
[32]
  viability, T/C: 0.14%
[33]
  viability, T/C: 0.16%
[34]
  viability, T/C: 0.16%
[35]
  viability, T/C: 0.22%
[36]
  viability, T/C: 0.18%

## CCc1c2c(nc3ccc(O)cc13)-c1cc3c(c(=O)n1C2)COC(=O)[C@]3(O)CC + Cc1cnc(CNC(=O)c2c(=O)c3ccc(N4CCCN(C)CC4)nc3n3c2sc2ccccc23)cn1
Second compound 0.0316 µM
  IC50: 53.2 nM
Second compound 0.1 µM
  IC50: 48 nM
Second compound 0.316 µM
  IC50: 11.2 nM
Second compound 1 µM
  IC50: < 0.999 nM
Second compound 3.16 µM
  IC50: < 0.999 nM
Second compound 10 µM
  IC50: < 0.999 nM
Second compound 0.0316 µM, first compound 0.000999 µM
  viability, T/C: 63.5%
Second compound 0.0316 µM, first compound 0.00316 µM
  viability, T/C: 60.3%
Second compound 0.0316 µM, first compound 0.00999 µM
  viability, T/C: 56.9%
[1]
  viability, T/C: 53.3%
Second compound 0.0316 µM, first compound 0.0999 µM
  viability, T/C: 47%
[3]
  viability, T/C: 30.9%
Second compound 0.1 µM, first compound 0.000999 µM
  viability, T/C: 66.2%
Second compound 0.1 µM, first compound 0.00316 µM
  viability, T/C: 65.6%
Second compound 0.1 µM, first compound 0.00999 µM
  viability, T/C: 52.2%
[7]
  viability, T/C: 52.7%
Second compound 0.1 µM, first compound 0.0999 µM
  viability, T/C: 47.1%
[9]
  viability, T/C: 17.5%
Second compound 0.316 µM, first compound 0.000999 µM
  viability, T/C: 52.9%
Second compound 0.316 µM, first compound 0.00316 µM
  viability, T/C: 60%
Second compound 0.316 µM, first compound 0.00999 µM
  viability, T/C: 51.5%
[13]
  viability, T/C: 34.5%
Second compound 0.316 µM, first compound 0.0999 µM
  viability, T/C: 36.9%
[15]
  viability, T/C: 1.36%
Second compound 1 µM, first compound 0.000999 µM
  viability, T/C: 38.9%
Second compound 1 µM, first compound 0.00316 µM
  viability, T/C: 35%
Second compound 1 µM, first compound 0.00999 µM
  viability, T/C: 35.6%
[19]
  viability, T/C: 28.7%
Second compound 1 µM, first compound 0.0999 µM
  viability, T/C: 14.9%
[21]
  viability, T/C: 0.15%
Second compound 3.16 µM, first compound 0.000999 µM
  viability, T/C: 13.5%
Second compound 3.16 µM, first compound 0.00316 µM
  viability, T/C: 12.2%
Second compound 3.16 µM, first compound 0.00999 µM
  viability, T/C: 4.86%
[25]
  viability, T/C: 0.17%
Second compound 3.16 µM, first compound 0.0999 µM
  viability, T/C: 0.14%
[27]
  viability, T/C: 0.15%
Second compound 10 µM, first compound 0.000999 µM
  viability, T/C: 0.15%
Second compound 10 µM, first compound 0.00316 µM
  viability, T/C: 0.14%
Second compound 10 µM, first compound 0.00999 µM
  viability, T/C: 0.19%
[31]
  viability, T/C: 0.2%
Second compound 10 µM, first compound 0.0999 µM
  viability, T/C: 0.2%
[33]
  viability, T/C: 0.14%

## Nc1ccn(C2OC(CO)C(O)C2(F)F)c(=O)n1 (stereo unspecified) + Cc1cnc(CNC(=O)c2c(=O)c3ccc(N4CCCN(C)CC4)nc3n3c2sc2ccccc23)cn1
Second compound 0.0316 µM
  IC50: > 10000 nM
Second compound 0.1 µM
  IC50: > 10000 nM
Second compound 0.316 µM
  IC50: 4260 nM
Second compound 1 µM
  IC50: < 31.6 nM
Second compound 3.16 µM
  IC50: < 31.6 nM
Second compound 10 µM
  IC50: < 31.6 nM
[1]
  viability, T/C: 85.8%
[2]
  viability, T/C: 63.4%
[3]
  viability, T/C: 64.2%
[4]
  viability, T/C: 59.8%
[5]
  viability, T/C: 73.4%
[6]
  viability, T/C: 59.3%
[7]
  viability, T/C: 62.5%
[8]
  viability, T/C: 67.5%
[9]
  viability, T/C: 58.2%
[10]
  viability, T/C: 79.8%
[11]
  viability, T/C: 61.6%
[12]
  viability, T/C: 59.9%
[13]
  viability, T/C: 64.5%
[14]
  viability, T/C: 59.7%
[15]
  viability, T/C: 56.3%
[16]
  viability, T/C: 56.7%
[17]
  viability, T/C: 54.4%
[18]
  viability, T/C: 43.6%
[19]
  viability, T/C: 51.5%
[20]
  viability, T/C: 46.9%
[21]
  viability, T/C: 47.8%
[22]
  viability, T/C: 52.1%
[23]
  viability, T/C: 47%
[24]
  viability, T/C: 28%
[25]
  viability, T/C: 23.3%
[26]
  viability, T/C: 26.2%
[27]
  viability, T/C: 21.9%
[28]
  viability, T/C: 6.98%
[29]
  viability, T/C: 14%
[30]
  viability, T/C: 0.27%
[31]
  viability, T/C: 0.21%
[32]
  viability, T/C: 0.2%
[33]
  viability, T/C: 0.17%
[34]
  viability, T/C: 0.31%
[35]
  viability, T/C: 0.2%
[36]
  viability, T/C: 0.21%
